Assay results as given in patent US8716355B2, “Hydroxylated tolans and related compounds in the treatment of a cancer” (Kent State University, priority 2007, dated 2014).
Read-outs that look alike come from different tables or passages of the source.

What was measured:
Vero cells = assay: Cytotoxicity (CD50) on Vero cells; format: cell-based; details: 48 hours of exposure
Excerpt: See Example II for tumor cell cytotoxicity of these compounds. […] NAB group 32 contains two compounds, Tolan-2 (also designated herein as KST-201) and Stil-2. Based on the NAB, they were classified as topological isomers. However, chemically they differ because Stil-2, a […], contained a double bonded linker, while Tolan-2 contained a triple bonded linker. The cytotoxicity of the two molecules on Vero cells differed markedly: Tolan-2 was less toxic than Stil-2.

HSV-1 [1] = assay: HSV-1 replication in infected Vero cells (plaque assay); format: cell-based, Herpes Simplex Virus-Type 1
Procedure: For this purpose HSV-1 replication at 24, 48 and 72 h was examined in the presence or absence of varying concentrations of the polyphenol.
The SI is the ratio of the CD50 divided by a selected inhibitory concentration (IC %).
Viral inhibition by Tolan-3 appeared to occur after viral entry into cells. […] Subsequently, the compound was removed and replaced with culture medium alone, and the incubated continued for 48 or 72 more hrs. In a second experiment, HSV-1 infected Vero cells were incubated with 350 μM Tolan-3 for 48 h. Thereafter, the Tolan-3 was removed and replaced by medium and the incubation continued for an additional 24 h. Viral titers were calculated by a standard plaque assay.

HSV-1 [2] = assay: Direct inactivation, attachment and penetration of HSV-1; format: cell-based, Herpes Simplex Virus-Type 1
Procedure: To determine whether Tolan-3 directly inactivated the virus, Tolan-3 was incubated with HSV-1 at room temperature for 1, 30 or 60 minutes while controls were also incubated with HSV-1 at room temperature without Tolan-3. The treated or control virus was plated onto Vero cells.

HSV-1 [3] = system: HSV-1
Excerpt: FIG. 2. […] A 10% w/v solution of KST-301 in DMSO was applied topically to the epidermal infection site 3×/day for 5 days. Controls animals received the same volume of the DMSO vehicle at the same intervals. Lesions were scored as 0=no visible lesions, +1=papules around the infection site, +2=papules are ulcerated around the infection site with eschar formation, +3=ulcerated zosteriform spread along peripheral nerves to the flank of the animal, +4=ulcerated lesions open on the flank, and +5=death of the animal.
The lesions were scored as in the description for FIG. 2.

Mushroom tyrosinase = assay: Inhibition of mushroom tyrosinase activity; format: biochemical; details: concentration not given
Procedure: All chemical used for reagents were purchased from Sigma Chemical Company. KST201 at each tested concentration (1000, 250 and 100 μM) was dissolved in 10% ethanol from a master mixture of the drug prepared at 0.1M in 100% ethanol.
Mushroom tyrosinase (Sigma) was diluted in 50 mM phosphate buffer, pH 6.5 to yield a concentration of 16 U/μl. […] A master mix containing 0.5 mM L-DOPA [3,4-dihydroxy-1-phenylalanine], 10 mM Sodium L-tyrosine in 50 mM phosphate buffer, pH 6.5 was prepared. The KST-201 dilutions were preincubated with the enzyme for 20 minutes. The samples were pipetted into 24 well plates and the master mixture added quickly. The reaction was read using a kinetic format in which wells were read every 30 seconds over a course of 10 minutes at a wavelength of 475 nm using a Synergy HT Plate reader. A kinetic curve was generated for each sample compared to a total reaction with mushroom tyrosinase without a drug (total).

prostate cancer = assay: Prostate cancer patients (Example VIII A); format: in vivo, human; details: daily 10 μg to 5 mg/Kg; no significant differences between the four groups
Procedure: A group of 40 men aged 55-75 suffering from prostate cancer receive a daily dosage of between 10 μg and 5 mg/Kg body weight of KST-201, KST-213, KST-301 or KST-401 (10 patients per compound). Examination of the patients by clinical, radiographic and histopathological tests show significant shrinkage in tumors, and signs of cell death in 38% of the patients; there are no significant differences between the four treatment groups.

bladder cancer = assay: Bladder cancer patients (Example VIII B); format: in vivo, human; details: intravenous 10 μg to 5 mg/kg over three months
Procedure: A group of 20 men and 20 women aged 50-75 with bladder cancer are treated by intravenous injection of between 10 μg and 5 mg/kg of KST-201, KST-213, KST-301 or KST-401. Each compound is given to a group of 5 men and 5 women) over a period of three months. Clinical, radiographic and histopathological tests show significant remission in 35% of patients, accompanied by signs of cell death in 45%. There are no significant differences between the results with the four compounds.

breast cancer = assay: Breast cancer prevention, skin patch (Example VIII C); format: in vivo, human; details: transdermal patch 10 mg to 100 mg daily, one-year study
Procedure: This study investigates whether KST-201, KST-213, KST-301 and KST-401 administered transdermally each day through a skin patch aid in preventing breast cancer or metastatic cancer following cancer therapy. Patches are prepared with a lipophilic carrier which is readily absorbed through the skin (glycerol cold cream containing glycerin and peanut oil). The HT compound is mixed with the lipophilic cream such that each patch comprises 10 mg to 100 mg of active compound. The patch is applied to the skin each day, and rapid absorption occurs. After two hours, the patch is removed.

ovarian cancer = assay: Ovarian cancer patients (Example VIII D); format: in vivo, human; details: daily gelatin capsule 200 mg
Procedure: A study is carried out in a group of 40 women with ovarian cancer of various grades to determine the effect of treatment with compounds of KST-201, KST-213, KST-301 and KST-401. The administration protocol involves daily administration of a gelatin capsule containing 200 mg of active compound.

colon cancer = assay: Colon cancer patients (Example VIII E); format: in vivo, human
Procedure: Eight patients suffering from advanced colon cancer are treated daily for three weeks with an intravenous infusion of 2 g of the compounds KST-201, KST-213, KST-301 or KST-401 dissolved in saline. Two patients are assigned to each compound. The compounds are dissolved in sterile saline. […] Progression of the tumor is also arrested over the treatment period.
Another eight patients with terminal colon cancer are treated by daily bolus injections (intravenous or intramuscular) of 2 g of KST-201, KST-213, KST-301 or KST-401.

T24 = assay: MTT cytotoxicity, T24 bladder cancer cells; format: cell-based, human; details: Homo sapiens, VC:KST-201 200:1, read-out: CD50 (μM) of each Compound tested in combination, T24
Procedure: (§1) As a first step, the antitumor activity of the tolans was assessed against a panel of three cancer cells lines that produce solid tumors upon implantation into animals. DU145 is an androgen-independent prostate cancer cells. T24 is a transitional cell bladder carcinoma cell. MDAH2274 (“MDAH) is an endometroid ovarian adenocarcinoma cell. To assess the selectivity of this antitumor activity, the toxicity of the tolans to normal human fibroblasts (MHRF) was examined.
Cell killing was evaluated using the colorimetric MTT assay. The assay measures the formation of a colored product from a chromogenic precursor, the tetrazole 3-[4,5-dimethylthiazol-2-yl]-2,5 diphenyltetrazolium bromide (MTT). The yellow MTT is reduced to purple formazan in the mitochondria of living cells. A solubilization solution (typically dimethyl sulfoxide or sodium dodecyl sulfate in dilute hydrochloric acid) is added to dissolve the insoluble purple formazan product into a colored solution. The absorbance of this colored solution is quantified by measuring at a certain wavelength (usually between 500 and 600 nm) by a spectrophotometer. […] This MTT assay is used widely to assess the cytotoxicity and selectivity of compounds such as anti-cancer drugs. The assay is suitable for rapid toxicity characterization of a test agent such as a drug formulation. […] A lower CD50 indicates a greater cytotoxic activity (as a lower amount of the agent is needed to achieve a fixed level of cytotoxicity). Two agents can be compared by examining the fold-increase or decrease in their CD50 values. […]

MDAH2274 = assay: MTT cytotoxicity, MDAH2274 ovarian cancer cells; format: cell-based, human; details: Homo sapiens
Procedure: as §1
Cell killing was evaluated using the colorimetric MTT assay. The assay measures the formation of a colored product from a chromogenic precursor, the tetrazole 3-[4,5-dimethylthiazol-2-yl]-2,5 diphenyltetrazolium bromide (MTT). The yellow MTT is reduced to purple formazan in the mitochondria of living cells. A solubilization solution (typically dimethyl sulfoxide or sodium dodecyl sulfate in dilute hydrochloric acid) is added to dissolve the insoluble purple formazan product into a colored solution. The absorbance of this colored solution is quantified by measuring at a certain wavelength (usually between 500 and 600 nm) by a spectrophotometer. […] This MTT assay is used widely to assess the cytotoxicity and selectivity of compounds such as anti-cancer drugs. The assay is suitable for rapid toxicity characterization of a test agent such as a drug formulation. […] A lower CD50 indicates a greater cytotoxic activity (as a lower amount of the agent is needed to achieve a fixed level of cytotoxicity). Two agents can be compared by examining the fold-increase or decrease in their CD50 values.

terminal cancer = details: cited from earlier work
advanced cancer = details: 10 g oral VC, randomized placebo-controlled trials; cited from earlier work
[4] = mice; 6.5 g/Kg daily for 6 weeks and 2 g/Kg for 2 years; cited from earlier work
[5] = intravenous infusion 2 g daily for three weeks

Oc1ccc(C#Cc2cc(O)cc(O)c2)cc1 [KST-301, 3,4′,5-trihydroxytolan]
CD50 (Vero cells): 350 µM
Log CD50 (Vero cells): 2.54
Reversibility of HSV-1 inhibition after removal of compound (HSV-1 [1]; 350 μM, removed as late as 48 hours post infection): HSV-1 replication recovered
SI50 (selectivity index, CD50 divided by IC50) (HSV-1 [1]; 48 h post-infection): > 63
IC50 (HSV-1 [1]; Human alphaherpesvirus 1, Vero, read-out: IC50, concentration at which 50% of HSV-1 replication was inhibited, viral assays at lower compound concentrations): 6.37 µM
Effect on HSV-1 viral replication in Vero cells (in words) (HSV-1 [1]; at CD50, 75% and 50% of CD50, 24, 48, 72 h): significant anti-HSV activity
Inhibition of HSV-1 attachment or penetration (HSV-1 [2]): did not inhibit HSV-1 attachment or penetration
Direct inactivation of HSV-1 (HSV-1 [2]; incubated with HSV-1 at room temperature 1, 30 or 60 minutes): did not directly inactivate HSV-1
Number and severity of HSV lesions (HSV-1 [3]; 5% w/v solution, topical, hairless mice): significantly reduced the number and severity of HSV lesions
Severity of HSV-1 lesions (HSV-1 [3]; 10% w/v solution in DMSO, topical 3×/day for 5 days, hairless mice): significantly reduced
Treated animals in which lesion formation was prevented (HSV-1 [3]; topical solution in DMSO): 67%
Treated animals showing evidence of HSV infection (HSV-1 [3]; topical solution in DMSO, controls 83-100%): 33%
Maximum (average) lesion score (HSV-1 [3]; topical solution in DMSO, scale 0 to +5, controls 3.8-4 by days 8 and 9): 0.8-1.2
Dermal toxicity (erythema, scaling, crusting, lichenification, excoriation) (HSV-1 [3]; topical, hairless mice): no apparent dermal toxicity
% inhibition of mushroom tyrosinase activity (Mushroom tyrosinase): 40.1±9.9%
Patients with significant shrinkage in tumors, and signs of cell death (prostate cancer): 38%
Patients with signs of cell death (bladder cancer): 45%
Patients with significant remission (bladder cancer; no differences between compounds): 35%
Breast cancer or metastatic cancer in high-risk group (breast cancer): does not show any evidence of breast cancer or other metastatic cancer
Rate of production of ovarian cancer markers (Muc-1, Sp17) (ovarian cancer): significant decrease
Tumor growth during study period (ovarian cancer): Tumors regress or show no further growth
Dissemination of the tumors (colon cancer; daily bolus injections (intravenous or intramuscular) of 2 g): dissemination of the tumors is diminished
Cancer marker carcinoembryonic antigen (CEA) (colon cancer; [5]): significant reduction
Progression of the tumor (colon cancer; [5]): arrested

O=C1O[C@H]([C@@H](O)CO)C([O-])=C1O.[Na+] [VC, sodium ascorbate, reference compound]
IC50 (T24; T-24, 24 h, 1 day): 638 µM
IC50 (T24; T-24, 48 h, 2 days): 634 µM
IC50 (MDAH2274; 24 h, MTT, 1 day incubation, read-out: CD50 against MDAH, compound tested individually): 937 µM
IC50 (MDAH2274; 24 h, VC:KST-201 400:1, 1 day, read-out: CD50 (μM) of each Compound tested in combination, MDAH 2274): 466 µM
IC50 (MDAH2274; 48 h, MTT, 2 days incubation, read-out: CD50 against MDAH, compound tested individually): 900 ± 46.7 µM
IC50 (MDAH2274; 48 h, VC:KST-201 400:1, 2 days, read-out: CD50 (μM) of each Compound tested in combination, MDAH 2274): 389 ± 9.6 µM
IC50 (MDAH2274; 72 h, MTT, 3 days incubation, read-out: CD50 against MDAH, compound tested individually): 879 µM
IC50 (MDAH2274; 72 h, VC:KST-201 400:1, 3 days, read-out: CD50 (μM) of each Compound tested in combination, MDAH 2274): 393 µM
Mean survival time (MST) (terminal cancer; 100 terminal cancer patients, 10 g/day i.v. 10 days then oral, controls 50 days): > 210 days
MST, times greater than that of the controls (terminal cancer; 100 terminal cancer patients): more than 4.2 times
MST of subjects with ovarian cancer (terminal cancer; six ovarian cancer subjects, controls 71 days): 148 days
Benefit of oral VC treatment (advanced cancer): no benefits of oral VC treatment
Mortality, weight changes, blood chemistry, hematology, histology, other pathologies [4]: no abnormal rates of mortality
